test: Human HepG2 cell viability assay in 384 well format; type: toxicity, cell-based; set-up: dose 125 nL, time 70.5 hour; cytotoxicity at 70.5 h: concentration not given beside the values; settings: HepG2 cells, read-out: Inhibition

| Compound | cytotoxicity at 70.5 h |
| --- | --- |
| CCN1CCN(Cc2coc(-c3cccc(F)c3)n2)CC1 | 20.2% |
| CCn1c(CN2CCN(CCOC)CC2)nc2c(F)cccc21 | 2.86% |
| C=C(C)CN(CC)C(=O)CN(C)C1CCc2ccccc21 (stereo unspecified) | -2.32% |
| COc1ccc(CNCc2c(C(C)C)nn(C)c2N(C)C)cn1 | 0.065% |
| Cc1nc(-c2ccsc2)ccc1C(=O)NCCN1CCN(C)CC1 | 0.295% |
| Cc1nc(-c2ccsc2)ccc1C(=O)NCCCN1CCOCC1 | -5.66% |
| CCNC(=O)CN1CCN(Cc2nc3c(F)cccc3n2CC)CC1 | 0.0175% |
| O=C(CN1CCC(c2ccccc2)C1)NCC(F)(F)F (stereo unspecified) | 1.22% |
| O=C(Cc1c(F)cccc1Cl)N1CCC(Nc2cccnn2)CC1 | -1.25% |
| CCNc1cc2c(nn1)CCN(C(=O)c1cccc(CSC)c1)C2 | -3.17% |
| CCNc1cc2c(nn1)CCN(C(=O)c1ccc(C(N)=O)cc1)C2 | 20.2% |
| COCC(c1cccc(C(F)(F)F)c1)N(C)C(=O)c1ccoc1 (stereo unspecified) | -3.47% |
| Cc1noc(C)c1CC(=O)N1CCC(Nc2cccnn2)CC1 | 20.6% |
| Cc1cnn(CCNCc2csc(-c3ccc(C(N)=O)cc3)n2)c1 | -1.79% |
| Cc1cc(NC(=O)CN2CCn3c(nnc3C3CC3)C2)on1 | -2.62% |
| O=C(CSc1ccccc1F)NS(=O)(=O)c1ccc2c(c1)OCCO2 | -0.308% |
| Cc1noc(C)c1CC(=O)N1CCCN(Cc2cscn2)CC1 | -2.59% |
| Cc1nc(C)n(CC2CCCCN2Cc2nc(-c3ccco3)no2)n1 (stereo unspecified) | -5.26% |
| Cc1nn(C)c(N2CCOCC2)c1CNCc1cscn1 | -9.09% |
| Cc1cc(C)n(CC2CCCN2C(=O)CCc2ccncc2)n1 (stereo unspecified) | -6.13% |
| Cc1nc(CNCc2c(C(C)C)nn(C)c2N2CCOCC2)cs1 | -7.63% |
| Cc1nc(C)n(CC2CCCN2Cc2nc(-c3ccsc3)no2)n1 (stereo unspecified) | 12.8% |
| Cc1cccc(-c2noc(CN3CCOC(Cn4cccn4)C3)n2)c1 (stereo unspecified) | -11.5% |
| Cc1noc(C)c1CCC(=O)N1CCCN(Cc2cccs2)CC1 | -6% |

| Compound | cytotoxicity at 70.5 h |
| --- | --- |
| CSC(C)C(=O)NCc1ccnc(N2CCN(C)CC2)c1 (stereo unspecified) | -7.04% |
| COc1ccc(CNCC2CNc3cc(C)nn3C2)cn1 (stereo unspecified) | -2.49% |
| Cc1csc(N2CCN(C(=O)C3(C#N)CCCCC3)CC2)n1 | -9.16% |
| CC(C(=O)NCc1ccc(N2CCN(C)CC2)nc1)n1cccn1 (stereo unspecified) | -6.16% |
| Cc1cc2n(n1)CC(CNCc1ccc(Oc3ccccc3)nc1)CN2 (stereo unspecified) | 21.7% |
| Cc1cc2n(n1)CC(CNCc1ccc(-n3cccn3)cc1)CN2 (stereo unspecified) | -0.128% |
| CC(NCc1ccsc1)c1ccc2c(c1)NC(=O)CO2 (stereo unspecified) | -13.9% |
| c1cncc(-c2noc(CN3CCOC(Cn4cccn4)C3)n2)c1 (stereo unspecified) | -4.62% |
| Cc1nnc2n1CCN(Cc1ncc(-c3ccccc3)o1)C2 | -9.8% |
| COC(=O)c1cc(C(=O)N2CCC(C)CC2)n(-c2ccccc2)n1 | -6.41% |
| Cc1noc(C)c1C(C)C(=O)N1CCCN(Cc2cscn2)CC1 (stereo unspecified) | -9.23% |
| CCc1nccn1C1CCCN(C(=O)c2ccc(NC3CC3)nc2)C1 (stereo unspecified) | -2.23% |
| Cc1cc(C)n(CC2CCCN2C(=O)CCNc2ncccn2)n1 (stereo unspecified) | -4.55% |
| O=C(c1ccc(NC2CC2)nc1)N1CCCC(n2ccnc2)C1 (stereo unspecified) | -12.9% |
| CCc1nnc2n1CCN(Cc1ncc(-c3ccc(Cl)cc3)o1)C2 | -7.58% |
| Cc1nnc2n1CCN(Cc1ncc(-c3ccc(F)cc3)o1)C2 | -1.84% |
| Cc1ncc(CN2CCCN(Cc3noc(C4CC4)n3)CC2)s1 | 23.6% |
| CC(C)OCCN1CCC(C(=O)c2cc(F)ccc2F)CC1 | 25% |
| CCOCCN1CCC(C(=O)c2cc(F)ccc2F)CC1 | 17.7% |
| CCc1ccc(C(=O)N2CCN(CC(O)CC)CC2)o1 (stereo unspecified) | 46.5% |
| Cc1nc(CN2CCCC(NCc3cnc(C(C)(C)C)s3)C2)no1 (stereo unspecified) | 2.91% |
| O=C(CN1CCCC1c1noc(C2CC2)n1)N1CCc2ccccc21 (stereo unspecified) | -7.43% |
| CCc1ncc2c(n1)CN(Cc1cccc(OCC(N)=O)c1)CC2 | 1.32% |
| CC(O)CNC(=O)NCc1ccc(N2CCNC(=O)C2)cc1 (stereo unspecified) | 2.26% |

| Compound | cytotoxicity at 70.5 h |
| --- | --- |
| Cc1cc(C)n(CC2CN(CC(=O)Nc3nncs3)CCO2)n1 (stereo unspecified) | 0.137% |
| Cc1cc(C[S+]([O-])CC(=O)NCC(C)C)no1 (stereo unspecified) | -1.65% |
| CN1CCN(C2CCN(CCOc3ccc(F)cc3)CC2)C1=O | 18.4% |
| COc1cn(-c2ccccc2)nc1C(=O)NCCCN1CCCC(C)C1 (stereo unspecified) | -11.2% |
| CC(C)OCCN1CCC(N2CCN(C)C2=O)CC1 | -2.99% |
| Cc1cnn(CC2CN(Cc3cccc(OCC(N)=O)c3)CCO2)c1 (stereo unspecified) | -5.97% |
| CCc1csc(C2CCCN(C(=O)c3c[nH]c(C)n3)C2)n1 (stereo unspecified) | -12% |
| CCc1nc(C2CCCN2CC(=O)Nc2c(C)n[nH]c2C)no1 (stereo unspecified) | 5.42% |
| Cc1nc(C)n(CC2CCCCN2Cc2nnc(C3CC3)o2)n1 (stereo unspecified) | 0.151% |
| COCCN1CCC(NCc2cccc(F)c2)C1 (stereo unspecified) | 26.3% |
| CC(C)c1nn(C)c(N(C)C)c1CNCC(O)c1ccccc1F (stereo unspecified) | 17.9% |
| O=C(NCC1CCOC1)c1csc(-c2cccc(Cl)c2)n1 (stereo unspecified) | 1.75% |
| O=c1[nH]c(CN(Cc2ccco2)C2CCCC2)nc2ccccc12 | 5.19% |
| CCOc1ccc(Cl)c(C(=O)N2CCN(C(=O)c3ccoc3C)CC2)n1 | -1.97% |
| Cn1ncc2c(=O)[nH]c(CN(Cc3ccco3)C3CCCC3)nc21 | -0.279% |
| CCOc1ccc(Cl)c(C(=O)N2CCN(c3cnccn3)CC2)n1 | 38.9% |
| Cn1cc(CCC(=O)N2CCN(Cc3ccncc3)CC2)cn1 | 2.28% |
| Cc1ccc(C(O)CNCc2c(C(C)C)nn(C)c2N(C)C)cc1 (stereo unspecified) | 0.581% |
| CNC(=O)c1ccc(C(=O)N2CCCC(n3cc(C)cn3)C2)cn1 (stereo unspecified) | 40.9% |
| Cc1cnn(C2CCCN(C(=O)c3ccc(N(C)C)nn3)C2)c1 (stereo unspecified) | -10.7% |
| CC(C)Cc1cc(NC(=O)c2ccc[nH]2)n(C)n1 | -11.1% |
| COC(=O)c1cccn1C1CCN(C(=O)c2cn[nH]c2C)CC1 | -1.46% |
| CCn1cnnc1C1CCN(C(=O)c2ccccc2OC)CC1 | -8.77% |
| CN(c1cccnn1)C1CCN(C(=O)c2ccc3c(c2)COC3)CC1 | -13.7% |

| Compound | cytotoxicity at 70.5 h |
| --- | --- |
| c1ccc(CCN2CCN(c3ccc4nncn4n3)CC2)nc1 | -6.96% |
| O=C(c1ccc2c(c1)COC2)N1CCC(Nc2cccnn2)CC1 | -1.47% |
| CC(NC(=O)CNCCn1cccn1)c1ccc2c(c1)CCCC2 (stereo unspecified) | -4.4% |
| CCc1nccn1C1CCCN(C(=O)c2ccc3[nH]c(=O)[nH]c3c2)C1 (stereo unspecified) | 29% |
| Cc1oc(C(=O)O)cc1S(=O)(=O)Nc1cc(Cl)ccc1F | -7.55% |
| Cc1cccc(NS(=O)(=O)c2cc(C(=O)O)oc2C)c1Cl | 1.03% |
| O=C(c1ccc2c(c1)COC2)N1CCC(Nc2ccccc2)CC1 | 1.02% |
| CCn1cnnc1CNC(=O)N1CCN(c2cccs2)CC1 | 25.1% |
| COc1cccc(C(=O)Nc2cc(CC(C)C)nn2C)c1 | 3.59% |
| FC(F)(F)COCCN1CCN(c2ccc3nncn3n2)CC1 | 1.24% |
| COCCN1CCC(NCc2ccc(C#N)cc2)C1 (stereo unspecified) | 34.1% |
| CCc1noc(CNc2ccc(C(=O)N3CCCC(C)C3)cc2C)n1 (stereo unspecified) | -10.5% |
| NC(=O)c1cc(C2CCCN(C(=O)CCc3cscn3)C2)n[nH]1 (stereo unspecified) | -11.7% |
| O=C1NCCN1C1CCN(Cc2nc(-c3ccoc3)no2)CC1 | 7.71% |
| COc1c(C)cnc(CN2CCC(N(C)C(C)C(N)=O)CC2)c1C (stereo unspecified) | -2.64% |
| CCC(=O)N(C)C1CCN(Cc2ncc(C)c(OC)c2C)CC1 | -17.3% |
| Cc1nn(C)c(C)c1C1COCCN1C(=O)c1n[nH]c2ccccc12 (stereo unspecified) | -10.8% |
| CN(Cc1ccsc1)C(=O)c1cccc(F)c1 | -9.63% |
| CC(C)c1nnc(CN2CCCC2Cn2cncn2)o1 (stereo unspecified) | -11.1% |
| O=C(c1cccn1Cc1cccs1)N1CCN(C(=O)C2CC2)CC1 | -20.1% |
| c1cnnc(NCC2CN(Cc3cccc4c3OCCO4)CCO2)c1 (stereo unspecified) | -20.6% |
| O=C(CS(=O)(=O)c1ccccc1Cl)NC1CCCCNC1=O (stereo unspecified) | -25.9% |
| CC(C)N(C)S(=O)(=O)N(C)Cc1ccc2c(c1)OCO2 | 20.7% |
| CC(Cn1cccn1)NC(=O)Nc1nccs1 (stereo unspecified) | -21.9% |

| Compound | cytotoxicity at 70.5 h |
| --- | --- |
| CC(NC(=O)NCc1ccoc1)c1ccc2c(c1)CCC(=O)N2 (stereo unspecified) | 14.8% |
| CC(C)CN1CCC(C(=O)Nc2cc(C(F)(F)F)c[nH]c2=O)CC1 | -6.4% |
| CCOCCCn1c(NC(=O)c2scnc2C)nc2ccccc21 | 30.8% |
| CC(C)CN1CCN(C(=O)Nc2cc(C(F)(F)F)c[nH]c2=O)CC1 | -17.9% |
| CCOCCCn1c(NC(=O)c2cnn(C)c2)nc2ccccc21 | -13.3% |
| CCOCCCn1c(NC(=O)c2ccc(C)nc2)nc2ccccc21 | -5.03% |
| O=C(c1cccn1Cc1cccs1)N1CCN(C2CC2)CC1 | -10.4% |
| CCn1c(C(=O)N2CCN(C(=O)COC)CC2)cc2ccccc21 | 26.3% |
| COC(=O)C(NC(=O)c1ccco1)c1cc(F)ccc1F (stereo unspecified) | -15.6% |
| CCOCC(O)CN1CCN(C(=O)c2cccnc2OC)CC1 (stereo unspecified) | -18% |
| CNc1cc2c(nn1)CCN(C(=O)c1cccc3c1OCO3)C2 | -16.7% |
| Cc1nn(C)c(C)c1C1COCCN1C(=O)c1ccccc1 (stereo unspecified) | 22.5% |
| COc1ccccc1CC(=O)NS(=O)(=O)c1ccc(C(N)=O)cc1 | -12.7% |
| CC(CNc1cncc(-n2cccn2)n1)N(C)c1ccccc1 (stereo unspecified) | 1.39% |
| CN1N=C(C(=O)Nc2cc(F)ccc2OCC2CCCO2)CCC1=O (stereo unspecified) | -20.2% |
| Nc1cc2c(nn1)CCN(C(=O)c1cccc3c1OCCO3)C2 | -14.7% |
| CN(CC1(O)CCCCC1)C1CCCN(Cc2noc(C3CC3)n2)C1 (stereo unspecified) | 16.9% |
| Cc1cnn(C2CN(CC(=O)NCc3ccccn3)C2)c1 | 16.5% |
| Cc1cc(CN(C)C2CCCN(Cc3noc(C4CC4)n3)C2)no1 (stereo unspecified) | 11.8% |
| CCOc1nnc(CN2CCC(N(C)Cc3noc(C)n3)C2)s1 (stereo unspecified) | -8.7% |

From ChEMBL document CHEMBL3507680, “University of Dundee, Gates Library screen for HepG2 cell viability”
